Results on seven molecules are retold here after patent EP0247482A2, “Hardened reagent coatings, and processes for the preparation thereof” (priority 1986, dated 1987).

This data set deals with casein. The settings on record: pH 7. How it is done:
A 10 % strength casein solution is prepared in water by adding sodium hydroxide solution. 0.1 g of tartrazine is added to 100 ml of solution as filter dyestuff. Before pouring, various samples of the solution of 3 % by weight of each of the compounds 22, 19, 20, 21, 24, 25, 30, 31, 37, 41, 44, 45, 50, 52, 53, 55 and 56, dissolved in water, are added at a pH of 7.
For the molecule `NC(=O)c1ccc[n+](C(=O)N2CCOCC2)c1` [Compound 19], the “hardened filter foils, solubility in alkaline water after drying” value (“hardened filter foils, solubility” for short) was “no longer dissolve in alkaline water”.

In the case of `O=C(N1CCOCC1)[n+]1cccc(S(=O)(=O)[O-])c1` [Compound 45], the “hardened filter foils, solubility” value was “no longer dissolve in alkaline water”.

Consider `CCN(CC)C(=O)[n+]1ccc(CCS(=O)(=O)[O-])cc1` [Compound 50], for which the “hardened filter foils, solubility” value is given as “no longer dissolve in alkaline water”.

For the molecule `Cc1ccc(N(C)C(=O)[n+]2ccc(CCS(=O)(=O)[O-])cc2)cc1` [Compound 52], the “hardened filter foils, solubility” value is given as “no longer dissolve in alkaline water”.

Regarding `O=C(N1CCCCC1)[n+]1ccc(CCS(=O)(=O)[O-])cc1` [Compound 53], the “hardened filter foils, solubility” value is on record as “no longer dissolve in alkaline water”.

Regarding `O=C(N1CCOCC1)[n+]1ccc(CCS(=O)(=O)[O-])cc1` [Compound 55], the “hardened filter foils, solubility” value is “no longer dissolve in alkaline water”.

In the case of `O=C(N1CCOCC1)[n+]1cccc(CCS(=O)(=O)[O-])c1` [Compound 56], the “hardened filter foils, solubility” value was “no longer dissolve in alkaline water”.
